Experimental data published in patent publication US20160051594A1, “Therapeutic Compositions and Uses Thereof” (MANUKA HEALTH NEW ZEALAND LIMITED, priority 2013, published 2016).

Key:
[1] = test system: human colorectal adenocarcinoma cells (DLD-1); experiment: MTT proliferation assay, DLD-1 cells (Examples 2 and 3); assay type: cell-based
Protocol: Test samples shown below in Table 3 were assessed for their ability to modulate the viability and proliferation of human colorectal adenocarcinoma cells (DLD-1) as assessed by the MTT assay. A positive control, 5-Fluorouracil (5-FU) was included in addition to an unsupplemented cell control (negative control) in the study. All samples were normalized to 200 μg/ml total solids.
Thus, DLD-1 colon cancer cells were exposed to: • a tincture originally containing 25% solids by mass propolis which then diluted in the test solution to give 200 μg/ml total solids. The tincture was used to manufacture the cyclodextrin-encapsulated propolis samples. • Cyclodextrin propolis (γ-cyclodextrin encapsulated with 25% propolis tincture), CD1 from Table 2 in Example 1 • Cyclodextrin propolis+CAPE (γ-cyclodextrin encapsulated 25% propolis tincture with added CAPE to double the concentration of CAPE relative to the tincture), CD2 from Table 2 in Example 1 • γ-cyclodextrin alone (CAVAMAX W8 food gamma cyclodextrin) • 5-flurorouracil at 7.50 ng/ml as a positive control
All cyclodextrin-encapsulated samples and γ-cyclodextrin alone were assayed on a per weight of sample, and so contain at most 50 μg/ml total solids as propolis.
Human colorectal adenocarcinoma epithelial cell lines were revived from cryostorage and cultured in the presence of the test and reference samples. The culture conditions for the cells were those described by the supplier of the cells (ATCC). An MTT assay was then performed on the cultures to determine the effect of the samples on the cell proliferation.
• 1. The human colorectal adenocarcinoma cells (DLD-1) obtained from the American Type Culture Collection USA were revived from cryostorage. • 2. Following initial propagation using the media described above (see Medium Preparation), the culture was subcultured using the trypsin-EDTA as follows. The media was removed and 5 ml of the trypsin-EDTA solution added and incubated at 37° C. for 5 min or until all the cells had detached. The trypsin was neutralised by adding an equal volume of DMEM medium and the culture centrifuged at 300 g (1200 rpm) for 5 min at 4° C. • 3. The supernatant was decanted and the cell pellets resuspended in medium DMEM, FBS (10%), penicillin (100 units/ml), streptomycin (100 μg/ml). The cells were cultured at 37° C. in 5% CO2/95% air. • 4. After reaching confluence, the cells were detached using trypsin-EDTA and centrifuged as described in 2 above. • 5. The supernatants were discarded and the cells resuspended in DMEM and supplements as described in 3 above at 7.5×10^4 cells per ml. A total volume of 23 mls of the cell suspension was required. • 6. Into each well of three 96 well plates, 180 μl of the cells ([…]) or medium was added as indicated in the plate layout below. The plates were incubated at 5% CO2/95% air at 37° C. for 8 h which was sufficient to allow the cells to strongly adhere. • 7. To each well, 20 μl of each of the test samples or positive control was added as indicated in the diagrams above. To the wells labelled ‘medium’ or ‘cells only’, 20 μl of 15% ETOH/HBSS was added. Each sample was assessed in replicates of 6, while the controls on all three plates were assessed in replicates of 9 (combined triplicates) • 8. The total volume in each well was 200 μl. • 9. The plates were incubated at 37° C. in 5% CO2/95% air for 19 h.
• 1. On completion of the incubation, 20 μl of MTT working solution (5 mg/ml) was added to all wells and incubated for 2 hr at 37° C. in 5% CO2/95% air. • 2. 100 μl of MTT lysis buffer was then added and the plates incubated for 3 hr at 37° C. on a shaker in 5% CO2/95% air, followed by pipetting to break up and dissolve the crystals until fully solubilized. The plates were centrifuged at 1200 rpm for 10 minutes to pelletize any remaining insoluble material. From each well 200 μl aliquots were transferred to fresh 96 well plates. The plates were read by a VersaMax microplate reader at 570 nm. • 3. […]

[2] = test system: human oesophageal squamous cell carcinoma cell line (KYSE-30); experiment: Gastro-intestinal cancer anti-proliferative MTT assay, KYSE-30 (Examples 5-9); assay type: cell-based; conditions: Example 9
Protocol: Sample CD5 γ-cyclodextrin as prepared in Example 1 was assessed for its ability to modulate the viability and proliferation of human colorectal adenocarcinoma cells (DLD-1); human colon cancer cell line (HCT-116); human gastric carcinoma cell line (NCI-N87); and human oesophageal squamous cell carcinoma cell line (KYSE-30) as assessed by the MTT assay. The positive control, 5-fluorouracil (5-FU) was included at three concentrations; in addition to an unsupplemented cell control as a negative control in the study. [Do we include test compounds for comparison?.
The four human gastrointestinal carcinoma cell lines were revived from cryostorage and cultured in the presence of the test and reference samples. An MTT assay was then performed on the cultures to determine the effect of the samples on the cell viability and proliferation.
The test sample, and all other test samples in Examples 5-8 were dissolved in 15% ethanol/Hanks Balanced Salt Solution (ETOH)/HBSS to a concentration of 2 mg/mL solids. In the assay the final concentration of the samples was 200 μg/ml with a final EtOH concentration of 1.5%.
• 1. Human colorectal adenocarcinoma cells (ATCC CCI-221, DLD-1)(ATCC, Bethesda, Md., USA) • 2. Human gastric carcinoma cells (ATCC CRL-5822, NCI-N87)(ATCC, Bethesda, Md., USA) • 3. Human oesophageal squamous cell carcinoma (ECACC, KYSE-30)(Sigma Aldrich, Auckland, NZ) • 4. Human colon carcinoma cells (ECACC HCT-116)(Sigma Aldrich, Auckland, NZ) • 5. Penicillin-streptomycin solution: 10000 units/ml penicillin, 10 mg/ml streptomycin in 0.9% NaCl (Sigma Cat #P-0781). Stored at −20° C. • 6. For DLD-1 cells: DMEM culture medium (Invitrogen Cat #12100-046). Stored at 4° C. • 7. For NCI-N87 cells: RPMI-1640 medium modified to contain 2 mM L-glutamine, 10 mM HEPES, 1 mM sodium pyruvate, 4500 mg/L glucose, and 1500 mg/L sodium bicarbonate (Sigma R6504). Stored at 4° C. • 8. For KYSE-410 cells: RPMI-1640 medium modified to contain 2 mM L-glutamine (Sigma R6504). Stored at 4° C. • 9. For HCT-116 cells: McCoy's 5A medium modified to contain 2 mM L-glutamine (Sigma M48792). Stored at 4° C. • 10. […]

[3] = test system: HCT-116-R cells (butyrate resistant, derived from HCT-116); experiment: Apoptotic assay (PE Annexin V, flow cytometry), butyrate-resistant HCT-116-R; assay type: cell-based, human; conditions: for % Apoptosis: HCT-116-R, 50 hours
Protocol: (§1) The human colorectal cell line HCT-116 was obtained from the American Type Culture Collection (Rockville, Md.). The butyrate resistant cell line was derived from HCT-116 by culturing the parental cells in increasing concentrations of butyrate as previously described in Bordonaro […]. The activation of beta-catenin by Wnt signaling mediates the effects of histone deacetylase inhibitors. Exp Cell Res. 2007; 313:1652-66 (including references therein). Colorectal cells were grown in alpha-MEM medium with 10% fetal bovine serum and antibiotics. The concentration of CAPE in the propolis-cyclodextrin complex CD1 was 1.79 μg/100 μg propolis solid encapsulated in the cyclodextrin, or 0.41 μg/100 μg cyclodextrin complex. Stock solutions were prepared in dimethyl sulfoxide, except for butyrate, which was dissolved in water at 1 M concentration. […] All cells (floating and attached) were harvested and stained for apoptotic and necrotic markers using a PE Annexin V Apoptosis Detection Kit I (BD Biosciences, #559763). Flow cytometry analyses were carried out with FACS Aria II and DiVa software. […] All data are presented as mean±standard deviation from at least three sets of independent experiments. Student T-test analysis was used to determine the significance of statistical differences. Differences were considered significant at P<0.05.

[4] = test system: human colorectal cancer cell line HCT-116; experiment: Apoptotic assay (PE Annexin V, flow cytometry), HCT-116; assay type: cell-based; conditions: for % Apoptosis: 50 hours
Protocol: as §1

**Q.** `O=c1c(O)c(-c2ccccc2)oc2cc(O)cc(O)c12` [Galangin] was tested. Which “Mean (OD 570 nm)” value ([1]; DLD-1, 200 μg/ml) did it give?
**A.** 0.1411

**Q.** Which results are given for `OC[C@H]1O[C@@H]2O[C@H]3[C@H](O)[C@@H](O)[C@@H](O[C@H]4[C@H](O)[C@@H](O)[C@@H](O[C@H]5[C@H](O)[C@@H](O)[C@@H](O[C@H]6[C@H](O)[C@@H](O)[C@@H](O[C@H]7[C@H](O)[C@@H](O)[C@@H](O[C@H]8[C@H](O)[C@@H](O)[C@@H](O[C@H]9[C@H](O)[C@@H](O)[C@@H](O[C@H]1[C@H](O)[C@H]2O)O[C@@H]9CO)O[C@@H]8CO)O[C@@H]7CO)O[C@@H]6CO)O[C@@H]5CO)O[C@@H]4CO)O[C@@H]3CO` [CAVAMAX W8 Food gamma Cyclodextrin, gamma-cyclodextrin]?
**A.** inhibition at 200 µg/mL ([2]; Homo sapiens, KYSE-30, KYSE-30, 200 μg/ml): 8.8%; Mean (OD 570 nm) ([2]; KYSE-30, 200 μg/ml): 0.3056; % inhibition ([2]; KYSE-30, 200 μg/ml, listed as Gamma-CD): 8.85%; % inhibition ([1]; DLD-1, 200 μg/ml): 9.11%; Mean (OD 570 nm) ([1]; DLD-1, 200 μg/ml): 0.6405; inhibition at 200 µg/mL ([1]; Homo sapiens, DLD-1, DLD-1, 200 μg/ml): 9.1%

**Q.** What does the source list for `CCCC(=O)O` [butyrate]?
**A.** % Apoptosis ([3]; 5 mM): 11.2%; % Apoptosis ([4]; HCT-116, 5 mM): 57.5%; apoptosis relative to cells only ([4]; HCT-116, butyrate 5 mM): 35%

**Q.** Which results are given for `O=C(/C=C/c1ccc(O)c(O)c1)OCCc1ccccc1` [CAPE, caffeic acid phenethyl ester]?
**A.** % Apoptosis ([3]; 1.2 ug/ml): 9.7%; apoptosis relative to the negative control ([3]; HCT-R, CAPE 1.2 ug/ml alone): did not undergo significant apoptosis; % Apoptosis ([4]; HCT-116, 1.2 ug/ml): 18.3%; apoptosis relative to the negative control ([4]; HCT-116, CAPE 1.2 ug/ml): no significant increase in apoptosis; Mean (OD 570 nm) ([1]; DLD-1, 200 μg/ml): 0.0777

**Q.** Which “Mean (OD 570 nm)” value ([1]; DLD-1, 200 μg/ml) does the source give for `O=c1cc(-c2ccccc2)oc2cc(O)cc(O)c12` [Chrysin] here?
**A.** 0.1233
